# Measurements: patent US10532085B2, “Methods for increasing intracellular activity of Hsp70” (Orphazyme A/S, priority 2010, dated 2020)
# B1: rASM: recombinant acid sphingomyelinase (protein, UniProt P17405 47-631, looked up)
# Sphingomyelin …: LALSDSRVLWAPAEAHPLSPQGHPARLHRIVPRLRDVFGWGNLTCPICKGLFTAINLGLKKEPNVARVGSVAIKLCNLLKIAPPAVCQSIVHLFEDDMVEVWRRSVLSPSEACGLLLGSTCGHWDIFSSWNISLPTVPKPPPKPPSPPAPGAPVSRILFLTDLHWDHDYLEGTDPDCADPLCCRRGSGLPPASRPGAGYWGEYSKCDLPLRTLESLLSGLGPAGPFDMVYWTGDIPAHDVWHQTRQDQLRALTTVTALVRKFLGPVPVYPAVGNHESTPVNSFPPPFIEGNHSSRWLYEAMAKAWEPWLPAEALRTLRIGGFYALSPYPGLRLISLNMNFCSRENFWLLINSTDPAGQLQWLVGELQAAEDRGDKVHIIGHIPPGHCLKSWSWNYYRIVARYENTLAAQFFGHTHVDEFEVFYDEETLSRPLAVAFLAPSATTYIGLNPGYRVYQIDGNYSGSSHVVLDHETYILNLTQANIPGAIPHWQLLYRARETYGLPNTLPTAWHNLVYRMRGDMQLFQTFWFLYHKGHPPSEPCGTPCRLATLCAQLSARADSPALCRHLMPDGSLPEAQSLWPRPLFC
# Tests used:
# [1] = system: MEFs; format: cell-based
# Protocol: (§1) BMP binds ASM with high affinity and stimulates its ability to hydrolyze sphingomyelin to ceramide and phosphorylcholine. […] In order to test whether ASM is responsible for the lysosome stabilizing effect we treated the cells with desipramine, a well characterized pharmacological ASM inhibitor. […] It should be noted that akin to rHsp70, also rASM localized to the lysosomes.
# Cell density was assessed by the 3-(4,5-dimethylthiazole-2-y)-2,5-[…] (MTT, SIGMA-Aldrich) reduction assay essentially as described in the art. Apoptosis-like cell death was assessed by staining the cells with 0.05 μg/ml Hoechst 33342 (Molecular Probes) and counting cells with condensed nuclei in an inverted Olympus IX-70 fluorescent Microscope (Filter U-MWU 330-385 nm). For each experiment a minimum of eight randomly chosen areas were counted.
# [2] = system: MEFs; format: cell-based; remark: listed apart in the source
# Protocol: as §1
# The total and cytoplasmic (digitonin-extracted) cathepsin activities were measured in digitonin-treated samples using zFR-AFC (Enzyme System Products) probe as described in the art.
# [3] = system: Hsp70-MEFs; assay: Lysosomal membrane integrity upon photo-oxidation in Hsp70-MEFs; format: cell-based, murine; conditions: subtoxic concentration
# Protocol: as §1
# (§2) Sub-confluent cells incubated with 2 μg/ml acridine orange for 15 min at 37° C. were washed, irradiated and analyzed in Hanks balanced salt solution complemented with 3% fetal calf serum. Cells for single cell imaging were selected from 8 pre-defined areas of each well in transmitted light-mode after which the same cells were immediately visualized and exposed to blue light from USH102 100W mercury arc burner (Ushio electric) installed in a U-ULS100HG housing (Olympus) for 20 sec. Fluorescence microscopy was performed on Olympus IX-70 inverted microscope with a LCPlanF1 ×20 objective with NA=0.40. Loss of lysosomal pH gradient was quantified by counting the loss of intense red staining. A more elaborate method for assaying lysosomal integrity was developed to handle the larger lysosomal compartment of the various fibroblasts used in this study. […] The resulting timelapse movies where subsequently analysed by the integrated Zeiss LSM DUO software.
# [4] = system: U-2-OS cells; assay: Lysosomal integrity upon photo-oxidation (acridine orange and blue light); format: cell-based, Human; conditions: recombinant proteins 300 nM, 24 h
# Protocol: FIG. 2: Lysosomal Hsp70 stabilizes lysosomal membranes. (a) Representative confocal images of U-2-OS cells incubated with 300 nM rHsp70-AF488 (green) for 24 h, fixed and stained for lysosomal integral membrane protein-1 (LIMP-1; red). For co-localization with other organelle markers see FIG. 3. (b) U-2-OS cells were incubated with 300 nM rHsp70-AF488 for 24 h before quantification of rHsp70-AF488 in membranes (memb.) and supernatant (sup.) obtained by repeated freeze/thaw cycles and centrifugation the light membrane fraction (LMF). […] (c) Representative still images of U-2-OS cells exposed to photo-oxidation (acridine orange and blue light). The loss of lysosomal integrity is visualized by the loss of red and increase in green staining. (d and e) U-2-OS cells were incubated with indicated recombinant proteins (300 nM) for 24 h, and analyzed for lysosomal integrity upon photo-oxidation. When indicated, cells were treated with indicated siRNAs for 48 h prior to the addition of recombinant proteins (e). The values represent means±SD (standard deviation) for three (d) or five (e) independent experiments. Representative immunoblots of indicated proteins from U-2-OS cells left untreated or treated with control or Hsp70 siRNAs are shown on the right. Scale bars: 20 μm (a and c).
# WT- and Hsp70-MEFs were generated, immortalized and maintained as described in the art. Human NPDA fibroblasts (83/24) originate from a skin biopsy of a patient with hepatosplenomegaly. Recombinant proteins were generated using the pET-16b vector system and Ni^2+-affinity-purification (Novagen), and labeled with Alexa Fluor 488 according to manufacturers protocol (Molecular Probes). To analyze the lysosomal integrity, we developed a real time imaging method of cells stained with acridine orange, a metachromatic weak base that accumulates in the acidic compartment of the cells staining them red and sensitizing them to photo-oxidation. The photo-oxidation-induced loss of the lysosomal pH-gradient and leakage of acridine orange to the cytosol from individual lysosomes was quantified visually as “loss of red dots” in U2-O—S cells and as a decrease in red and an increase in green fluorescence by Zeiss LSM DUO Software in fibroblasts. The total and cytoplasmic (digitonin-extracted) cathepsin activities were measured in digitonin-treated samples using zFR-AFC (Enzyme System Products) probe as described in the art. The tryptophan fluorescence spectra and liposome 90° light scattering were analyzed in a HEPES buffer (20 mM HEPES, 0.1 mM EDTA, pH as indicated) essentially as described in the art. Surface plasmon resonance measurements were performed with immobilized LUVs using a BIAcore 2000 system as described in the art. Hsp70 siRNA (5′-[…]-3′) and a […] were transfected with Oligofectamine (Invitrogen). Immunodetection was performed with standard protocols. Apoptosis-like cell death and lysosomal membrane permeabilization were analyzed essentially as described in the art. ASM activity was analyzed by Amplex Red Sphingomyelinase Assay Kit (A12220) from Molecular Probes with modifications described in the art. Statistical analysis was performed using a two-tailed, paired Student's T-test and all groups of data were tested for the comparability of their variances using an F-test.
# Sub-confluent cells incubated with 2 μg/ml acridine orange for 15 min at 37° C. were washed, irradiated and analyzed in Hanks balanced salt solution complemented with 3% fetal calf serum. Cells for single cell imaging were selected from 8 pre-defined areas of each well in transmitted light-mode after which the same cells were immediately visualized and exposed to blue light from USH102 100W mercury arc burner (Ushio electric) installed in a U-ULS100HG housing (Olympus) for 20 sec. Fluorescence microscopy was performed on Olympus IX-70 inverted microscope with a LCPlanF1 ×20 objective with NA=0.40. […]
# [5] = Surface plasmon resonance (BIAcore) BMP interaction; format: binding; conditions: acidic pH
# Source text: Thus, we investigated the interaction of Hsp70 with palmitoyl-oleoyl-phosphatidylcholine (POPC) large unilamellar vesicles (LUVs) containing various membrane-associated anionic lipids, i.e. palmitoyl-oleoyl-phosphatidylserine (POPS; primarily in plasma membrane), cardiolipin (primarily mitochondrial) and BMP (primarily in late endosomes/lysosomes). Taking into account the increasingly acidic milieu of the endo-lysosomal compartment upon maturation to lysosomes, we compared the protein-lipid interactions in neutral (pH 7.4) and acidic (pH 6.0) conditions. […] As reported earlier for POPS, all negatively charged lipids enhanced the binding of rHsp70 to the liposomes at neutral pH approximately 4-fold irrespective of the charge density on the liposome surface (ranging from −1 to −2).
# (§3) In order to investigate which part of the Hsp70 protein is responsible for the BMP binding, we measured the fluorescence shift of the tryptophans upon docking of rHsp70 and its mutants into BMP-containing liposomes. […] Next, we substituted the two tryptophans in Hsp70 with phenylalanines (W90F and W580F) and studied which tryptophan is responsible for the fluorescence shift induced by lipid binding. […] A more quantitative BIAcore analysis of the BMP—rHsp70 interaction confirmed that Hsp70 interacted with BMP mainly through its ATPase domain. […]
# [6] = Tryptophan fluorescence shift upon docking into BMP-containing liposomes; format: binding
# Source text: In order to investigate which part of the Hsp70 protein is responsible for the BMP binding, we measured the fluorescence shift of the tryptophans upon docking of rHsp70 and its mutants into BMP-containing liposomes. […] Next, we substituted the two tryptophans in Hsp70 with phenylalanines (W90F and W580F) and studied which tryptophan is responsible for the fluorescence shift induced by lipid binding. […] A more quantitative BIAcore analysis of the BMP—rHsp70 interaction confirmed that Hsp70 interacted with BMP mainly through its ATPase domain. […] Thus, the rHsp70-W90F mutant provided us with an invaluable tool to further test whether the direct interaction between Hsp70 and BMP endows Hsp70 with its lysosome protective attributes. […] Importantly, mutant Hsp70 proteins were endocytosed essentially as effectively as the wild type Hsp70.
# The tryptophan fluorescence spectra (RFI) and liposome 90° light scattering (RSI) were analyzed in a HEPES buffer (20 mM HEPES, 0.1 mM EDTA, pH 7.4 or 6.0 as indicated) employing LUVs consisting of indicated lipids essentially as described in the art. For the RFI, LUVs were added in 10 μM aliquots and spectra recorded after a 20 min stabilization period. For the RSI, recombinant proteins were added in 0.12 nmol aliquots.
# [7] = molecular target: T1, Hsp70 chaperone (Homo sapiens, UniProt P0DMV8, W90F); assay: Structural and functional aspects of the Hsp70 chaperone (circular dichroism, luciferase folding, ATP hydrolysis); format: biochemical; conditions: far- and near-UV circular dichroism
# T1 construct: made in house
# T1 sequence (P0DMV8 whole entry W90F): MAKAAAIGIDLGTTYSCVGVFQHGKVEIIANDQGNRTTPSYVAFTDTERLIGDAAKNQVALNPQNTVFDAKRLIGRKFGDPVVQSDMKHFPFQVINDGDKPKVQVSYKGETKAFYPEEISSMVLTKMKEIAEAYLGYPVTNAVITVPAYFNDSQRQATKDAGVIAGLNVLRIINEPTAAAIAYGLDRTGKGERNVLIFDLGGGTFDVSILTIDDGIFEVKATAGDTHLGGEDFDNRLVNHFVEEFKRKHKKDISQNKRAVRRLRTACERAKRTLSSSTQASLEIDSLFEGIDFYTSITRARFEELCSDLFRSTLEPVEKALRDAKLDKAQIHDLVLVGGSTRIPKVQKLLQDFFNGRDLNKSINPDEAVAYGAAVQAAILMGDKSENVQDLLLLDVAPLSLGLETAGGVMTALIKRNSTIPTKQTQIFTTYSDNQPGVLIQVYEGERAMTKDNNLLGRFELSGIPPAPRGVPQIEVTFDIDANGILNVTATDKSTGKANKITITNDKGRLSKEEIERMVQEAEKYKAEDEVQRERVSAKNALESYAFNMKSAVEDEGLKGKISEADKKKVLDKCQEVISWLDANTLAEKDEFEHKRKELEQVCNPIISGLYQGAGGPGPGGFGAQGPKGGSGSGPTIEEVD
# [8] = system: cisplatin-induced lysosomal cell death; assay: Cisplatin-induced lysosomal cell death; format: cell-based
# Source text: Thus, we investigated the interaction of Hsp70 with palmitoyl-oleoyl-phosphatidylcholine (POPC) large unilamellar vesicles (LUVs) containing various membrane-associated anionic lipids, i.e. palmitoyl-oleoyl-phosphatidylserine (POPS; primarily in plasma membrane), cardiolipin (primarily mitochondrial) and BMP (primarily in late endosomes/lysosomes). Taking into account the increasingly acidic milieu of the endo-lysosomal compartment upon maturation to lysosomes, we compared the protein-lipid interactions in neutral (pH 7.4) and acidic (pH 6.0) conditions. […]
# as §3
# Cell density was assessed by the 3-(4,5-dimethylthiazole-2-y)-2,5-[…] (MTT, SIGMA-Aldrich) reduction assay essentially as described in the art. […] For each experiment a minimum of eight randomly chosen areas were counted.
# [9] = system: ASM; assay: ASM activity in NPDA patient cells; format: cell-based, Human; conditions: loading the lysosomes of patient cells
# Source text: as §1
# WT- and Hsp70-MEFs were generated, immortalized and maintained as described in the art. Human NPDA fibroblasts (83/24) originate from a skin biopsy of a patient with hepatosplenomegaly. […] The photo-oxidation-induced loss of the lysosomal pH-gradient and leakage of acridine orange to the cytosol from individual lysosomes was quantified visually as “loss of red dots” in U2-O—S cells and as a decrease in red and an increase in green fluorescence by Zeiss LSM DUO Software in fibroblasts. The total and cytoplasmic (digitonin-extracted) cathepsin activities were measured in digitonin-treated samples using zFR-AFC (Enzyme System Products) probe as described in the art. The tryptophan fluorescence spectra and liposome 90° light scattering were analyzed in a HEPES buffer (20 mM HEPES, 0.1 mM EDTA, pH as indicated) essentially as described in the art. […] Apoptosis-like cell death and lysosomal membrane permeabilization were analyzed essentially as described in the art. […]
# [10] = system: NPDA cells; assay: Lysosomal stability in NPDA cells; format: cell-based, Human
# Protocol: as §1, §2
# [11] = system: NPDA cells; assay: Volume of the lysosomal compartment in NPDA cells; format: cell-based, Human
# Source text: as §1
# Primary antibodies used included mouse monoclonal antibodies against Hsp70 (2H9; kindly provided by Boris Margulis, Russian Academy of Sciences, St. Petersburg, Russia), glyceraldehyde-3-phosphate dehydrogenase (GAPDH; Biogenesis), BMP (6C4), lysosomal integral membrane protein-1 (H5C6; developed by J. Thomas August and James E. K. Hildreth and obtained from the Developmental Studies Hybridoma Bank developed under the auspices of the NICHD and maintained by The University of Iowa, Department of Biological Sciences, Iowa City, USA). Proteins separated by 10% SDS-PAGE and transferred to a nitrocellulose membrane were detected by using indicated primary antibodies, appropriate peroxidase-conjugated secondary antibodies from Dako, ECL Western blotting reagents (Amersham), and Luminescent Image Reader (LAS-1000Plus, Fujifilm). For immunocytochemistry Alexa […] or Alexa Fluor®-488-conjugated secondary antibodies were used. […] Fluorescence images were taken using a Zeiss Axiovert 100M laser scanning microscope. […]
molecule,measurement,setting,value
"CNCCCN1c2ccccc2CCc2ccccc21 [Desipramine, desipramine]",viability of MEFs,[1],reduced the viability of MEFs in a dose-dependent manner
same,permeabilization of lysosomes,[2],massive permeabilization of lysosomes
same,lysosomal stress resistance of Hsp70-MEFs upon photo-oxidation,[3],reverted the lysosomal stress resistance of Hsp70-MEFs to the level of WT-MEFs
"Hsc70: recombinant Hsc70, 86% identical to the amino acid sequence of Hsp70",protection of lysosomes against photo-oxidation (lysosomal stabilization),[4],no lysosomal stabilization
"Hsp70-2: recombinant Hsp70-2, 84% identical to the amino acid sequence of Hsp70",protection of lysosomes against photo-oxidation (lysosomal stabilization),[4],no lysosomal stabilization
rHsp70-W90F: rHsp70 mutant with tryptophan 90 substituted with phenylalanine,protection of lysosomes against photo-oxidation (lysosomal stabilization),[4],completely lost its ability to protect
same,interaction with BMP (BIAcore),[5],specifically abolished the interaction between rHsp70 and BMP
same,relative peak fluorescence intensity (tryptophan fluorescence shift),[6],reduction of the signal
same,structural and functional aspects of the chaperone,[7],retaining the structural (folding as analyzed by far- and near-UV circular dichroism) and functional (luciferase folding and ATP hydrolysis) aspects
same,protection of cells against cisplatin-induced lysosomal cell death,[8],completely lost its ability to protect
rHsp70-W580F: rHsp70 mutant with tryptophan 580 substituted with phenylalanine,protection of lysosomes against photo-oxidation (lysosomal stabilization),[4],same protective effect as the wild-type protein
same,protection of cells against cisplatin-induced lysosomal cell death,[8],same protective effect as the wild-type protein
B1,ASM activity in NPDA patient cells,[9],increased ASM activity
same,stabilization of lysosomes in NPDA cells,[10],stabilize the lysosomes
same,volume of the enlarged lysosomal compartment in NPDA cells,[11],normalize the volume
